This note sets out measurements from US10300048B2, “Thiazolidinones as cellular anandamide uptake inhibitors and their use in the treatment of psychiatric or neurological disorders and inflammation, in particular neuroinflammation” (UNIVERSITAT BERN, priority 2014, dated 2019).

SMILES strings stand for the structures. Like-named read-outs stand apart in the source and are kept apart here.

Assay [1] concerns AEA cellular uptake, U937 cells. The assay is described as follows: [3H]-AEA cellular uptake inhibition in U937 cells. Format: cell-based. The settings on record: Homo sapiens, U-937, U937 cells. Here is the method:
[^3H]-AEA Cellular Uptake
Screening for AEA cellular uptake inhibition was performed in a semi-automated procedure: Pipetting and washing steps were performed by a Biomek3000 laboratory workstation. First, required amounts of U937 cells were centrifuged at 100×g for 5 min and resuspended in RPMI (37° C.) to a final concentration of 2×10^6 cells/mL. Then, 250 μL of cell suspension (0.5×10^6 cells per sample) were transferred into AquaSil™ silanized glass vials (Chromacol 1.1-MTV) in 96-well format. After addition of 5 μL vehicle (DMSO) or compounds the cells were incubated at 37° C. for 15 min. As positive controls OMDM-2 and UCM707 were used at 10 μM in each run. The ETI-T compounds were measured at up to 7 concentrations in triplicates from 100 pM-100 μM. After pre-incubation, a mixture of 0.5 nM[ethanolamine-1-^3H]-AEA, (60 Ci/mmol) and 99.5 nM of cold AEA (final 100 nM) was added and samples were incubated at 37° C. for another 15 min. The reaction was stopped by rapid filtration over UniFilter-96 GF/C filters (PerkinElmer) pre-soaked with PBS 0.25% BSA. Cells were washed three times with 100 μL ice-cold PBS buffer containing 1% fatty acid free BSA. After drying, 45 μL MicroScint 20 scintillation cocktail (PerkinElmer, Waltham, Mass., US) was added to the wells and the plate was sealed. Radioactivity was measured by liquid scintillation counting on a PerkinElmer Wallac Trilux MicroBeta 1450 during 2 min. Non-specific binding of [^3H]AEA (100 nM) to the glass vials was never higher than 10%. IC50 values were calculated by GraphPad® by non-linear regression using the built-in log(inhibitor) vs. response-variable slope (four parameters) function.
(§1) Statistical analysis and IC50 values were determined using GraphPad® Prism 5.0 (GraphPad® Software, San Diego, Calif., US). Inhibition curves were obtained by non-linear regression using the built-in log(inhibitor) vs. response-variable slope (four parameters) function. Results were calculated as % of vehicle control of the corresponding fraction (cells, aqueous phase) if not mentioned else. In vivo results are shown in absolute values and were analyzed by a one-way ANOVA following a Tukey's multiple comparison test or student's t-test. If not indicated else the results were compared vs. vehicle (CTRL). *** P<0.001, ** P<0.01, * P<0.05, ns=not significant P>0.05.

For assay [2], the system named is TNF-alpha and IL-1beta in brain. The assay is described as follows: Endotoxemia mouse model (LPS), brain cytokines. Format: in vivo, mice. The settings on record: 5 mg/kg i.p. 30 min prior to LPS 250 μg/100 g i.p., vs. vehicle, P<0.05. As for the experimental part: Male BALB/c mice were injected i.p. with test compounds (5 mg/kg) or vehicle (DMSO, 20 μL) 30 min prior to LPS administration (250 μg/100 g body weight) in 50 μL saline solution. The administrations were conducted between 9:00 and 10:00 am. 30 min prior to scarification, 20 units (200 μL) of Inhepar® were injected subcutaneously. […] The brain was immediately removed on ice and stored in liquid nitrogen. […] The concentrations of the cytokines in brain and plasma were measured using commercially available Luminex MagPix cytokines assay (BioRad) specific for mice, according to the manufacturer's instructions. The acquisition of the fluorescent signal was achieved by a charged-coupled device (CCD) imager. The concentration of the analytes was determined by MAGPIX xPONENT. The assays were run in triplicates and the concentrations were expressed in pg/mL based on a standard curve.
as §1

The mark [3] stands for this setting: Table 1, 100 nM AEA, read-out: AEA uptake inhibition IC50.
The mark [4] stands for this setting: Table 4, read-out: AEA uptake IC50.

As usually defined, the IC50 is the midpoint of a concentration-inhibition curve. Take `O=C1/C(=C/c2cc(Cl)c(O)c(Cl)c2)S/C(=N\c2ccccc2)N1Cc1ccco1` [Compound 23]: the IC50 in assay [1] (setting [3]) and in assay [1] (setting [4]) was 0.99 µM each time.

As for `COc1cc(/C=C2\S/C(=N\c3ccccc3)N(c3ccccc3)C2=O)ccc1O` [Compound 6], the IC50 in assay [1] (setting [3]) and in assay [1] (setting [4]) was 0.225 µM each time.

Regarding `COc1ccc(/C=C2\S/C(=N\c3ccc(OC)cc3)N(c3ccc(OC)cc3)C2=O)cc1` [Compound 5], the IC50 in assay [1] (setting [3]) and in assay [1] (setting [4]) was 0.148 µM in each case. Moreover, the “IL-1beta level in total brain” value in assay [2] (after 2 hours) and in assay [2] (after 8 hours) was “Decrease” in each case. Also, the “TNF-alpha level in total brain” value in assay [2] (after 2 hours) and in assay [2] (after 8 hours) was “Decrease” each time.
